Columns and labels:
Assay in all cases: drug sensitivity score (DSS) from 5-point dose-response viability curve (DSS (area-under-curve based score)); higher = more sensitive (stronger growth inhibition or killing); extreme values may be limits of the assay
Conditions in all cases: exposure time: 72 h; concentration range: 5 concentrations over 10,000-fold range
CAOV3 = tested on: CAOV3
Summary of the method: (§1)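 For the drug sensitivity score, obtained per cell line and drug in Breeze software, larger values mean greater sensitivity. No response corresponds to a score of zero. Ovarian cancer and normal ovarian cells were seeded at 1,500 per well into 384-well plates already holding acoustically dispensed drugs (Echo 550, DMSO or water, five concentrations over a 10,000-fold range) and incubated 3 days at 37°C, 5% CO2. CellTiter-Glo luminescence on a PHERAstar FS gave the viability readout.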

COV318 = tested on: COV318
Summary of the method: as §1

COV362 = tested on: COV362
Summary of the method: as §1

HOSE1C = tested on: HOSE1C
Summary of the method: as §1

HOSE2C = tested on: HOSE2C
Summary of the method: as §1

JHOS2 = tested on: JHOS2
Summary of the method: as §1

Kuramochi = tested on: Kuramochi
Summary of the method: as §1

OV90 = tested on: OV90
Summary of the method: as §1

OVCAR4 = tested on: OVCAR4
Summary of the method: as §1

OVCAR5 = tested on: OVCAR5
Summary of the method: as §1

OVCAR8 = tested on: OVCAR8
Summary of the method: as §1

Ovsaho = tested on: Ovsaho
Summary of the method: as §1

How did the drug sensitivity score (CAOV3) turn out when `Clc1ccc(Nc2nnc(Cc3ccncc3)c3ccccc23)cc1` [Vatalanib] was run?
Its drug sensitivity score is 0.

What about the drug sensitivity score (COV318) of the same compound?
The drug sensitivity score was 0.

What about the drug sensitivity score (COV362) of the same compound?
Its drug sensitivity score is 0.

What about the drug sensitivity score (HOSE1C) of the same compound?
Its drug sensitivity score is 0.

What about the drug sensitivity score (HOSE2C) of the same compound?
Its drug sensitivity score is 0.

What about the drug sensitivity score (JHOS2) of the same compound?
Its drug sensitivity score is 0.

And the drug sensitivity score (Kuramochi)?
The drug sensitivity score was 0.

And the drug sensitivity score (OV90)?
The drug sensitivity score was 0.

What about the drug sensitivity score (OVCAR4) of the same compound?
The drug sensitivity score was 0.

And the drug sensitivity score (OVCAR5)?
Its drug sensitivity score is 0.

What about the drug sensitivity score (OVCAR8) of the same compound?
The drug sensitivity score was 0.

What about the drug sensitivity score (Ovsaho) of the same compound?
Its drug sensitivity score is 0.7.

What does the source list for `CN(C)C/C=C/C(=O)Nc1cc2c(Nc3ccc(F)c(Cl)c3)ncnc2cc1O[C@H]1CCOC1` [Afatinib]?
drug sensitivity score (CAOV3): 8.2; drug sensitivity score (COV318): 0; drug sensitivity score (COV362): 1.3; drug sensitivity score (HOSE1C): 0; drug sensitivity score (HOSE2C): 0; drug sensitivity score (JHOS2): 2.7; drug sensitivity score (Kuramochi): 2.3; drug sensitivity score (OV90): 0; drug sensitivity score (OVCAR4): 1; drug sensitivity score (OVCAR5): 3.4; drug sensitivity score (OVCAR8): 0.3; drug sensitivity score (Ovsaho): 3.2

What does the source list for `O=C(Nc1cccnc1)N1CCC(Cc2cccc(Oc3ccc(C(F)(F)F)cn3)c2)CC1` [PF-3845]?
drug sensitivity score (CAOV3): 1.6; drug sensitivity score (COV318): 0; drug sensitivity score (COV362): 0; drug sensitivity score (HOSE1C): 0; drug sensitivity score (HOSE2C): 0; drug sensitivity score (JHOS2): 0; drug sensitivity score (Kuramochi): 0; drug sensitivity score (OV90): 2; drug sensitivity score (OVCAR4): 0.3; drug sensitivity score (OVCAR5): 1; drug sensitivity score (OVCAR8): 6.5; drug sensitivity score (Ovsaho): 0

What does the source list for `NC[C@@](O)(c1ccc(Cl)cc1)c1ccc(-c2cn[nH]c2)cc1`?
drug sensitivity score (CAOV3): 0.5; drug sensitivity score (COV318): 3.3; drug sensitivity score (COV362): 0; drug sensitivity score (HOSE1C): 8.6; drug sensitivity score (HOSE2C): 6.1; drug sensitivity score (JHOS2): 2.8; drug sensitivity score (Kuramochi): 0.1; drug sensitivity score (OV90): 0; drug sensitivity score (OVCAR4): 1.1; drug sensitivity score (OVCAR5): 0.7; drug sensitivity score (OVCAR8): 1.1; drug sensitivity score (Ovsaho): 0

Which drug sensitivity score (CAOV3) does the source give for `CCn1c(-c2nonc2N)nc2cnc(Oc3cccc(NC(=O)c4ccc(OCCN5CCOCC5)cc4)c3)cc21` here?
Its drug sensitivity score is 1.6.

What about the drug sensitivity score (COV318) of the same compound?
Its drug sensitivity score is 5.7.

What about the drug sensitivity score (COV362) of the same compound?
Its drug sensitivity score is 0.2.

And the drug sensitivity score (HOSE1C)?
The drug sensitivity score was 12.7.

And the drug sensitivity score (HOSE2C)?
Its drug sensitivity score is 6.

And the drug sensitivity score (JHOS2)?
Its drug sensitivity score is 2.8.

And the drug sensitivity score (Kuramochi)?
The drug sensitivity score was 2.1.

And the drug sensitivity score (OV90)?
Its drug sensitivity score is 5.1.

What about the drug sensitivity score (OVCAR4) of the same compound?
Its drug sensitivity score is 0.6.

What about the drug sensitivity score (OVCAR5) of the same compound?
Its drug sensitivity score is 2.2.

And the drug sensitivity score (OVCAR8)?
Its drug sensitivity score is 4.4.

What about the drug sensitivity score (Ovsaho) of the same compound?
The drug sensitivity score was 0.9.

Which results are given for `Cc1cc(Nc2ncc(Cl)c(Nc3ccccc3S(=O)(=O)C(C)C)n2)c(OC(C)C)cc1C1CCNCC1` [Ceritinib]?
drug sensitivity score (CAOV3): 2.7; drug sensitivity score (COV318): 0.8; drug sensitivity score (COV362): 0; drug sensitivity score (HOSE1C): 0.7; drug sensitivity score (HOSE2C): 2.2; drug sensitivity score (JHOS2): 0; drug sensitivity score (Kuramochi): 2.1; drug sensitivity score (OV90): 4.9; drug sensitivity score (OVCAR4): 1.5; drug sensitivity score (OVCAR5): 3.8; drug sensitivity score (OVCAR8): 0; drug sensitivity score (Ovsaho): 3.3

With `CC[C@]1(O)C[C@H]2CN(CCc3c([nH]c4ccccc34)[C@@](C(=O)OC)(c3cc4c(cc3OC)N(C=O)[C@H]3[C@@](O)(C(=O)OC)[C@H](OC(C)=O)[C@]5(CC)C=CCN6CC[C@]43[C@@H]65)C2)C1` [Vincristine] as the compound, how does the drug sensitivity score (CAOV3) read?
Its drug sensitivity score is 21.3.

What about the drug sensitivity score (COV318) of the same compound?
Its drug sensitivity score is 1.9.

What about the drug sensitivity score (COV362) of the same compound?
The drug sensitivity score was 3.3.

And the drug sensitivity score (HOSE1C)?
The drug sensitivity score was 16.3.

And the drug sensitivity score (HOSE2C)?
Its drug sensitivity score is 17.7.

And the drug sensitivity score (JHOS2)?
The drug sensitivity score was 2.7.

And the drug sensitivity score (Kuramochi)?
The drug sensitivity score was 3.1.

And the drug sensitivity score (OV90)?
Its drug sensitivity score is 16.9.

What about the drug sensitivity score (OVCAR4) of the same compound?
Its drug sensitivity score is 6.6.

And the drug sensitivity score (OVCAR5)?
Its drug sensitivity score is 4.5.

And the drug sensitivity score (OVCAR8)?
The drug sensitivity score was 8.9.

And the drug sensitivity score (Ovsaho)?
The drug sensitivity score was 5.9.

What does the source list for `CC(C)Oc1ccc(C(=O)N[C@H](CNC(=O)CN(C)C)Cc2ccc(-c3cn4cccc([C@H](C)O)c4n3)cc2)cc1Cl`?
drug sensitivity score (CAOV3): 17.5; drug sensitivity score (COV318): 3.9; drug sensitivity score (COV362): 6; drug sensitivity score (HOSE1C): 14.1; drug sensitivity score (HOSE2C): 11.1; drug sensitivity score (JHOS2): 7.2; drug sensitivity score (Kuramochi): 9; drug sensitivity score (OV90): 12; drug sensitivity score (OVCAR4): 4.2; drug sensitivity score (OVCAR5): 16.3; drug sensitivity score (OVCAR8): 14; drug sensitivity score (Ovsaho): 10.2

Which results are given for `NC(=O)c1cccc2cn(-c3ccc([C@@H]4CCCNC4)cc3)nc12` [Niraparib]?
drug sensitivity score (CAOV3): 3.4; drug sensitivity score (COV318): 1.1; drug sensitivity score (COV362): 0; drug sensitivity score (HOSE1C): 3.9; drug sensitivity score (HOSE2C): 1.9; drug sensitivity score (JHOS2): 1.5; drug sensitivity score (Kuramochi): 1; drug sensitivity score (OV90): 1.7; drug sensitivity score (OVCAR4): 0; drug sensitivity score (OVCAR5): 2.6; drug sensitivity score (OVCAR8): 4.1; drug sensitivity score (Ovsaho): 2.1

Which results are given for `CS(=O)(=O)CCNCc1ccc(-c2ccc3ncnc(Nc4ccc(OCc5cccc(F)c5)c(Cl)c4)c3c2)o1` [Lapatinib]?
drug sensitivity score (CAOV3): 2.4; drug sensitivity score (COV318): 0; drug sensitivity score (COV362): 0; drug sensitivity score (HOSE1C): 0; drug sensitivity score (HOSE2C): 0; drug sensitivity score (JHOS2): 0; drug sensitivity score (Kuramochi): 0; drug sensitivity score (OV90): 0; drug sensitivity score (OVCAR4): 0; drug sensitivity score (OVCAR5): 0.7; drug sensitivity score (OVCAR8): 0; drug sensitivity score (Ovsaho): 0

`CN1CCN(C(=O)c2ccc3cc(CCNc4ncnc5ccc(C#N)cc45)ccc3c2)CC1` [Senexin B] was tested. Which drug sensitivity score (CAOV3) did it give?
The drug sensitivity score was 0.2.

And the drug sensitivity score (COV318)?
Its drug sensitivity score is 0.

And the drug sensitivity score (COV362)?
The drug sensitivity score was 0.

And the drug sensitivity score (HOSE1C)?
The drug sensitivity score was 0.

And the drug sensitivity score (HOSE2C)?
Its drug sensitivity score is 0.

What about the drug sensitivity score (JHOS2) of the same compound?
Its drug sensitivity score is 0.

And the drug sensitivity score (Kuramochi)?
Its drug sensitivity score is 2.6.

And the drug sensitivity score (OV90)?
The drug sensitivity score was 0.5.

What about the drug sensitivity score (OVCAR4) of the same compound?
Its drug sensitivity score is 1.1.

What about the drug sensitivity score (OVCAR5) of the same compound?
Its drug sensitivity score is 1.7.

What about the drug sensitivity score (OVCAR8) of the same compound?
Its drug sensitivity score is 0.2.

What about the drug sensitivity score (Ovsaho) of the same compound?
Its drug sensitivity score is 1.3.

Which drug sensitivity score (CAOV3) does the source give for `CN(CC(=O)N(Cc1ccc(C2CCCCC2)cc1)c1ccc(C(=O)O)cc1)S(=O)(=O)c1c(F)c(F)c(F)c(F)c1F` [SH-4-54] here?
Its drug sensitivity score is 8.1.

And the drug sensitivity score (COV318)?
The drug sensitivity score was 5.1.

And the drug sensitivity score (COV362)?
Its drug sensitivity score is 4.5.

And the drug sensitivity score (HOSE1C)?
Its drug sensitivity score is 7.5.

What about the drug sensitivity score (HOSE2C) of the same compound?
Its drug sensitivity score is 7.5.

And the drug sensitivity score (JHOS2)?
The drug sensitivity score was 5.2.

And the drug sensitivity score (Kuramochi)?
The drug sensitivity score was 6.6.

And the drug sensitivity score (OV90)?
Its drug sensitivity score is 7.4.

And the drug sensitivity score (OVCAR4)?
Its drug sensitivity score is 6.2.

What about the drug sensitivity score (OVCAR5) of the same compound?
Its drug sensitivity score is 5.2.

What about the drug sensitivity score (OVCAR8) of the same compound?
The drug sensitivity score was 5.8.

And the drug sensitivity score (Ovsaho)?
The drug sensitivity score was 5.7.

What does the source list for `CCC1=C[C@@H]2CN(C1)Cc1c([nH]c3ccccc13)[C@@](C(=O)OC)(c1cc3c(cc1OC)N(C)[C@H]1[C@@](O)(C(=O)OC)[C@H](OC(C)=O)[C@]4(CC)C=CCN5CC[C@]31[C@@H]54)C2` [Vinorelbine]?
drug sensitivity score (CAOV3): 16.4; drug sensitivity score (COV318): 8.1; drug sensitivity score (COV362): 8.9; drug sensitivity score (HOSE1C): 30.2; drug sensitivity score (HOSE2C): 32.1; drug sensitivity score (JHOS2): 9.7; drug sensitivity score (Kuramochi): 12.6; drug sensitivity score (OV90): 26.5; drug sensitivity score (OVCAR4): 12.7; drug sensitivity score (OVCAR5): 19.5; drug sensitivity score (OVCAR8): 27.6; drug sensitivity score (Ovsaho): 19.9

What does the source list for `N#Cc1ccnc(N2C(=O)CC[C@H]2C(=O)N(c2cncc(F)c2)[C@H](C(=O)NC2CC(F)(F)C2)c2ccccc2Cl)c1` [Ivosidenib]?
drug sensitivity score (CAOV3): 0; drug sensitivity score (COV318): 0; drug sensitivity score (COV362): 0; drug sensitivity score (HOSE1C): 0; drug sensitivity score (HOSE2C): 0; drug sensitivity score (JHOS2): 0; drug sensitivity score (Kuramochi): 0; drug sensitivity score (OV90): 0.3; drug sensitivity score (OVCAR4): 0.1; drug sensitivity score (OVCAR5): 0.6; drug sensitivity score (OVCAR8): 0; drug sensitivity score (Ovsaho): 0

How did the drug sensitivity score (CAOV3) turn out when `CC/C(=C(\c1ccccc1)c1ccc(OCCN(C)C)cc1)c1ccccc1` [Tamoxifen] was run?
The drug sensitivity score was 0.6.

What about the drug sensitivity score (COV318) of the same compound?
The drug sensitivity score was 0.6.

What about the drug sensitivity score (COV362) of the same compound?
Its drug sensitivity score is 0.8.

What about the drug sensitivity score (HOSE1C) of the same compound?
Its drug sensitivity score is 7.9.

What about the drug sensitivity score (HOSE2C) of the same compound?
The drug sensitivity score was 1.3.

And the drug sensitivity score (JHOS2)?
Its drug sensitivity score is 1.

What about the drug sensitivity score (Kuramochi) of the same compound?
Its drug sensitivity score is 2.2.

What about the drug sensitivity score (OV90) of the same compound?
The drug sensitivity score was 3.7.

What about the drug sensitivity score (OVCAR4) of the same compound?
The drug sensitivity score was 0.2.

And the drug sensitivity score (OVCAR5)?
Its drug sensitivity score is 3.9.

What about the drug sensitivity score (OVCAR8) of the same compound?
The drug sensitivity score was 0.8.

And the drug sensitivity score (Ovsaho)?
The drug sensitivity score was 2.9.

— the supplement of paper PMC11616607
